Laboratory results as given in patent US6875420B1, “Method of ultrasound imaging” (Amersham Health AS, priority 1991, dated 2005).
Like-named read-outs stand apart in the source and are kept apart here.

Assays:
[1] = cited from earlier work; for DENSITY: gas density; for SOLUBILITY: in water, fluorocarbons estimated by extrapolation relative to perfluoro-n-pentane; for boiling point: standard pressure conditions
[2] = Persistence of microbubbles in water at 37° C. observed by ultrasound scan; type: physicochemical
Protocol: The relationship between a calculated Q-value for a given gas and the persistence of microbubbles of that gas was studied to determine what Q-value would be a lower limit for utility as an ultrasound contrast agent. […] Five mL of a 20% sorbitol solution was taken up in a 10 mL syringe connected to a three way stopcock. A 10 mL syringe, containing 2 cubic centimeters of the subject gas (or low boiling liquid, as pertinent) was attached to the syringe containing the sorbitol solution. The sorbitol and gas or liquid are rapidly mixed 25-times to create a suspension of microbubbles or dispersed liquid and then rapidly added to the water. […] Ultrasound scans before, during and after the addition were made with a Hewlett-Packard Model Sonos 500 ultrasound scanner operating at 5 MHz. The time during which the microbubbles could be observed was recorded. […] The experimental Q-values were obtained by dividing the measured persistence of a given gas by the measured persistence for air.

[3] = Physical properties of gases: density, solubility in water, diffusivity, molar volume, boiling point; type: physicochemical; details: (*) estimated from the known density of homologous fluorocarbons
Description: Different methods for determining or estimating values for the individual parameters of density, diffusivity, and solubility may be needed depending on the chemical structure of the gas. Values for these parameters may or may not be available from known scientific literature sources such as the Gas Encyclopedia or the tabulations published by the American Chemical Society. Values for the density of most gases are readily available from sources such as the Handbook of Chemistry and Physics. […] Additionally, the solubility in water and molar volume of some gases has been measured with accuracy. In many cases however, calculations for the numerical values for molar volume and solubility may need to be calculated or estimated to provide the data used to determine the value of the Q coefficient for an individual gas by the method described above.
To determine the Q value for several gases, the solubility, molar volume and density of the individual gases are determined and the values are substituted into Equations (7) or (8) above.
This method for estimating the gas solubility of fluorocarbons uses extrapolation of the experimental data of Kabalnov AS, Makarov KN, and Scherbakova OV. […] For a homologous series of non-branched fluorocarbons, the gas solubility may be estimated by increasing or reducing this value by a factor of about 8.0 for each increase or reduction in the number of additional —CF2— groups present in the molecule.
The molar volume of a gas can be estimated by identifying the number and type of atoms that make up the molecule of gas in question. By determining the number and type of atoms present in the molecule and how the individual atoms are bound to each other, known values may be applied for the molecular volume of the individual atoms. By considering the contribution of each individual atom and its frequency of occurrence, one may calculate the total molar volume for a particular gas molecule.

[4] = about 100 micron microbubbles, 20% sorbitol, added to water at 37° C., 5 MHz ultrasound

Molecule | DENSITY [1] [kg/m3] | SOLUBILITY [1] | other results
[Ar] [Argon] | 1.78 | – | –
O=C=O [Carbon Dioxide] | 1.98 | 33000 µmol/L | –
FC(F)(F)C(F)(F)C(F)(F)C(F)(F)F [Decafluorobutane] | 11.21 | 32 µmol/L | –
FC(F)(F)C(F)(F)C(F)(F)C(F)(F)C(F)(F)F [Dodecafluoropentane] | 12.86 | – | PERSISTENCE of microbubbles [2, 4]: > 5760 min; water solubility [1]: 4.0×10^−6 moles per liter; boiling point [1]: 29.5 degrees Centigrade
CC [Ethane] | 1.05 | – | –
CCOCC [Ethyl ether] | 2.55 | 977,058 micromoles/liter | PERSISTENCE of microbubbles [2, 4]: 0.1 min
[He] [Helium] | 0.18 | 388 µmol/L | PERSISTENCE of microbubbles [2, 4]: 2.0 min
FC(F)(F)C#CC(F)(F)F [Hexafluoro-2-butyne] | – | – | DENSITY [3]: 9 (*) kg/m3
FC(F)=C(F)C(F)=C(F)F [Hexafluorobuta-1,3-diene] | – | – | DENSITY [3]: 9 (*) kg/m3
FC(F)(F)C(F)(F)F [Hexafluoroethane] | 8.86 | – | –
[Kr] [Krypton] | 3.8 | – | –
[Ne] [Neon] | 0.90 | 434 µmol/L | –
FC(=C(F)C(F)(F)F)C(F)(F)F [Octafluoro-2-butene] | – | – | DENSITY [3]: 10 (*) kg/m3
FC1(F)C(F)(F)C(F)(F)C1(F)F [Octafluorocyclobutane] | 9.97 | 220 µmol/L | –
FC(F)(F)C(F)(F)C(F)(F)F [Octafluoropropane] | 10.3 | 260 µmol/L | –
CCCCC [Pentane] | – | 1674 µmol/L | PERSISTENCE of microbubbles [2, 4]: 20.6 min
FC(F)(F)C(F)(F)C(F)(F)C(F)(F)C(F)(F)C(F)(F)F [Perfluorohexane, reference compound] | – | – | boiling point [1]: 59-60 degrees Centigrade
CCC [Propane] | 2.02 | – | PERSISTENCE of microbubbles [2, 4]: 3.2 min
FS(F)(F)(F)(F)F [Sulfur Hexafluoride] | 5.48 | – | –
[Xe] [Xenon] | 5.90 | – | –
CCCC [n-Butane] | 2.05 | 6696 µmol/L | PERSISTENCE of microbubbles [2]: 1.5 min (2.6)
Hexafluoropropane | 10.3 | – | –
